Data from ChEMBL document CHEMBL5518185, “Design, synthesis and antitumor activity of 4-arylamine substituted pyrimidine derivatives as noncovalent EGFR inhibitors overcoming C797S mutation” (Eur J Med Chem, 2024).
pIC50: −log10 of the molar value. Calls of active or inactive are those of the source. The calls are words filed in the database; no cut-off is given here.

Experiments:
HCC827 [1] = assay: Induction of apoptosis in human HCC827 cells assessed as activation of cleaved-caspase-3 level measured after 48 hrs by Western blot analysis; type: functional, cell-based; details: dose 10-400 nM
[2] = target: Epidermal growth factor receptor (Homo sapiens, UniProt P00533, EX19DEL/T790M); assay: Inhibition of EGFR Del19/T790M (unknown origin) preincubated for 10 mins followed by substrate addition and measured after 50 mins in presence of ATP by HTRF assay
[3] = Cytotoxicity against human L02 cells assessed as inhibition of cell viability measured after 72 hrs by MTT assay; type: toxicity, cell-based
HCC827 [4] = assay: Induction of apoptosis in human HCC827 cells assessed as viable cells at 10 nM measured after 24 hrs by annexin V/PI staining based flu cytometry analysis (reference value: 84.0%); type: functional; details: read-out: Activity
HCC827 [5] = assay: Induction of apoptosis in human HCC827 cells assessed as necrotic cells at 100 nM measured after 24 hrs by annexin V/PI staining based flu cytometry analysis (reference value: 7.34%); type: functional
[6] = tested on: Epidermal growth factor receptor (Homo sapiens), P00533 [UNDEFINED MUTATION]; details: dose 100.0 nM
HCC827 [7] = assay: Inhibition of colony formation in human HCC827 cells measured after 14 days by crystal violet staining based analysis; type: functional, cell-based; details: HCC827, 336 h
HCC827 [8] = assay: Induction of cell cycle arrest in human HCC827 cells assessed as accumulation of cells at G0/G1 phase at 100 nM measured after 24 hrs by PI staining based flow cytometry analysis (reference value: 54.36%); type: functional
Homo sapiens = species on record: Homo sapiens; assay: Inhibition of VGFR (unknown origin) by HTRF assay relative to control; details: concentration not given here
HCC827 [9] = assay: Induction of apoptosis in human HCC827 cells assessed as late apoptotic cells at 10 nM measured after 24 hrs by annexin V/PI staining based flu cytometry analysis (reference value: 5.50%); type: functional
HCC827 [10] = assay: Induction of cell cycle arrest in human HCC827 cells assessed as accumulation of cells at S phase at 100 nM measured after 24 hrs by PI staining based flow cytometry analysis (reference value: 28.81%); type: functional
HCC827 [11] = assay: Induction of apoptosis in human HCC827 cells assessed as late apoptotic cells at 100 nM measured after 24 hrs by annexin V/PI staining based flu cytometry analysis (reference value: 5.50%); type: functional
[12] = target: Epidermal growth factor receptor (Homo sapiens, UniProt P00533, C797S/EX19DEL/T790M); assay: Inhibition of EGFR Del19/T790M/C797S triple mutant (unknown origin) preincubated for 10 mins followed by substrate addition and measured after 50 mins in presence of ATP by HTRF assay
HCC827 [13] = assay: Inhibition of colony formation in human HCC827 cells at 10 to 30 nM measured after 14 days by crystal violet staining based analysis; type: functional, cell-based; details: dose 10-30 nM, time 14.0 day
[14] = tested on: Epidermal growth factor receptor (Homo sapiens), P00533 [UNDEFINED MUTATION]; details: dose 30.0 nM
[15] = target: Proto-oncogene tyrosine-protein kinase ROS (Homo sapiens) (UniProt P08922); assay: Inhibition of ROS (unknown origin) by HTRF assay relative to control; details: concentration not given here
[16] = target: Epidermal growth factor receptor (Homo sapiens, UniProt P00533, C797S/L858R/T790M); assay: Inhibition of EGFR L858R/T790M/C797S triple mutant (unknown origin) preincubated for 10 mins followed by substrate addition and measured after 50 mins in presence of ATP by HTRF assay
HCC827 [17] = assay: Inhibition of colony formation in human HCC827 cells at 100 nM measured after 14 days by crystal violet staining based analysis relative to control; type: functional; details: HCC827, 336 h, time 14 day
[18] = target: Tyrosine-protein kinase BTK (Homo sapiens) (UniProt Q06187); assay: Inhibition of BTK (unknown origin) by HTRF assay relative to control; details: concentration not given here
HCC827 [19] = assay: Induction of cell cycle arrest in human HCC827 cells assessed as accumulation of cells at G2/M phase at 100 nM measured after 24 hrs by PI staining based flow cytometry analysis (reference value: 16.83%); type: functional
[20] = Toxicity in BALB/c nude mouse assessed as effect on body weight loss at 10 to 50 mg/kg/day, po measured every three days for 21 days; type: organism-based; details: in vivo, 504 h, dose 10-50 mg/kg/day, time 21 day
[21] = target: Tyrosine-protein kinase ABL1 (Homo sapiens) (UniProt P00519); assay: Inhibition of Abl (unknown origin) by HTRF assay relative to control; details: concentration not given here
[22] = target: Platelet-derived growth factor receptor alpha (Homo sapiens) (UniProt P16234); assay: Inhibition of PDGFR alpha (unknown origin) by HTRF assay relative to control; details: concentration not given here
HCC827 [23] = assay: Induction of cell cycle arrest in human HCC827 cells assessed as accumulation of cells at G2/M phase at 30 nM measured after 24 hrs by PI staining based flow cytometry analysis (reference value: 16.83%); type: functional
HCC827 [24] = assay: Induction of cell cycle arrest in human HCC827 cells assessed as accumulation of cells at G0/G1 phase at 10 nM measured after 24 hrs by PI staining based flow cytometry analysis (reference value: 54.36%); type: functional
[25] = target: Mast/stem cell growth factor receptor Kit (Homo sapiens) (UniProt P10721); assay: Inhibition of c-kit (unknown origin) by HTRF assay relative to control; details: concentration not given here
HCC827 [26] = assay: Induction of apoptosis in human HCC827 cells assessed as necrotic cells at 30 nM measured after 24 hrs by annexin V/PI staining based flu cytometry analysis (reference value: 7.34%); type: functional
[27] = target: RAF proto-oncogene serine/threonine-protein kinase (Homo sapiens) (UniProt P04049); assay: Inhibition of c-RAF (unknown origin) by HTRF assay relative to control; details: concentration not given here
[28] = target: Epidermal growth factor receptor (Homo sapiens, UniProt P00533); assay: Inhibition of wild type EGFR (unknown origin) at 100 nM preincubated for 10 mins followed by substrate addition and measured after 50 mins in presence of ATP by HTRF assay relative to control; details: time 60.0 min
HCC827 [29] = assay: Induction of apoptosis in human HCC827 cells assessed as activation of cleaved-PARP level measured after 48 hrs by Western blot analysis; type: functional, cell-based; details: dose 10-400 nM
[30] = target: Dual specificity mitogen-activated protein kinase kinase; MEK1/2 (Homo sapiens) (UniProt P36507+Q02750); assay: Inhibition of MEK1/2 (unknown origin) by HTRF assay relative to control; type: protein assay; details: concentration not given here
A549 = assay: Antiproliferative activity against human A549 cells assessed as inhibition of cell growth measured after 72 hrs by MTT assay; type: functional, cell-based; details: A549, 72 h
HCC827 [31] = assay: Induction of apoptosis in human HCC827 cells assessed as necrotic cells at 10 nM measured after 24 hrs by annexin V/PI staining based flu cytometry analysis (reference value: 7.34%); type: functional
HCC827 [32] = assay: Induction of apoptosis in human HCC827 cells assessed as early apoptotic cells at 100 nM measured after 24 hrs by annexin V/PI staining based flu cytometry analysis (reference value: 3.2%); type: functional

Sequence of Epidermal growth factor receptor (Homo sapiens), P00533 [UNDEFINED MUTATION] (P00533 whole entry, looked up, change not shown): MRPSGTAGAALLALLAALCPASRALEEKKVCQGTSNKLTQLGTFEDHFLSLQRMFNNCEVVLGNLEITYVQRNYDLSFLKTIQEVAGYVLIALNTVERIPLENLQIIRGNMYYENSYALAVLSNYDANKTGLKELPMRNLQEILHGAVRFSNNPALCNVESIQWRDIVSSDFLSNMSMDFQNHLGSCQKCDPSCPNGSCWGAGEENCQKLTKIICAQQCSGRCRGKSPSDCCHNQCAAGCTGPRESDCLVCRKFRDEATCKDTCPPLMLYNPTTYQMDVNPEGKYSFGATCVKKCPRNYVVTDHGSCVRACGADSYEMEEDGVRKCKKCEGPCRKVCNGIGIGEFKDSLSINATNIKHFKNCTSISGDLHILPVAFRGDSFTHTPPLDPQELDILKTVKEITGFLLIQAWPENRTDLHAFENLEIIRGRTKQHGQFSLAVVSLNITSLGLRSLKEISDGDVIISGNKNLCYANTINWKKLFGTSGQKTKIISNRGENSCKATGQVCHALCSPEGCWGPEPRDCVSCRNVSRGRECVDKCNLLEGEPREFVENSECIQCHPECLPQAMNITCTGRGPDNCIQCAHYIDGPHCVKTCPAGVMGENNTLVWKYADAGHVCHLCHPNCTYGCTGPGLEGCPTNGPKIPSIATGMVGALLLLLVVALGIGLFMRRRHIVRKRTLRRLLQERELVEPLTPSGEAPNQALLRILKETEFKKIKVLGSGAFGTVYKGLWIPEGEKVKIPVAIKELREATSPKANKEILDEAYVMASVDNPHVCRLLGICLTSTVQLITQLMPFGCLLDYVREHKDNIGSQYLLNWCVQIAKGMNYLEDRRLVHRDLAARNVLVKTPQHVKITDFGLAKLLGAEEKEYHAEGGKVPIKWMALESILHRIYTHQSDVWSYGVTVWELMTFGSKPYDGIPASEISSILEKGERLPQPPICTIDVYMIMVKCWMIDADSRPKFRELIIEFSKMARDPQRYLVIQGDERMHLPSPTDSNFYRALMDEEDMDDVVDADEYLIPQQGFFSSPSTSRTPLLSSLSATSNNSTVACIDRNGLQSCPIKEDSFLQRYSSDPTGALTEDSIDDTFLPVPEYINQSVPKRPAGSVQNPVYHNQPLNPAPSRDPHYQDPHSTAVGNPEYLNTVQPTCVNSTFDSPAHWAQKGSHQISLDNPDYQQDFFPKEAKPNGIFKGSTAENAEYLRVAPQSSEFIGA
Sequence of Tyrosine-protein kinase BTK (Homo sapiens) (Q06187 whole entry): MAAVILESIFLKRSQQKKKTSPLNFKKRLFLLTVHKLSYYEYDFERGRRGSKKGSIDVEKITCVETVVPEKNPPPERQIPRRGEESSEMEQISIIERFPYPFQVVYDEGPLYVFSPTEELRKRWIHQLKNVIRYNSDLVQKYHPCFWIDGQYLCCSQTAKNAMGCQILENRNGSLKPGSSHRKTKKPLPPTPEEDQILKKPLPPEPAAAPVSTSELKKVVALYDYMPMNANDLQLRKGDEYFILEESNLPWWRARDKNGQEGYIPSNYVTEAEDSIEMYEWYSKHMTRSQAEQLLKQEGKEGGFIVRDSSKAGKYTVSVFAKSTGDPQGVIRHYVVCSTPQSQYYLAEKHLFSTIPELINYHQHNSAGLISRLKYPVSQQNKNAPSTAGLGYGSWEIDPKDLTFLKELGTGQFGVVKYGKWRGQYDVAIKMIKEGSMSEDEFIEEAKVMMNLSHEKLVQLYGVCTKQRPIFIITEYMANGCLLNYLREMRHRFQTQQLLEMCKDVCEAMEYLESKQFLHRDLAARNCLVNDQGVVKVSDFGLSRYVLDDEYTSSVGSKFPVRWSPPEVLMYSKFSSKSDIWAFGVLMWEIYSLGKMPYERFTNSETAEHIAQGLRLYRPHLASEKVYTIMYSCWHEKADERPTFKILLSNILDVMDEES
Sequence of Epidermal growth factor receptor (Homo sapiens, UniProt P00533, EX19DEL/T790M) (P00533 whole entry, looked up, stated change not applied): as the sequence (P00533 whole entry, looked up, change not shown) above
Sequence of Epidermal growth factor receptor (Homo sapiens, UniProt P00533) (P00533 whole entry): as the sequence (P00533 whole entry, looked up, change not shown) above
Sequence of RAF proto-oncogene serine/threonine-protein kinase (Homo sapiens) (P04049 whole entry): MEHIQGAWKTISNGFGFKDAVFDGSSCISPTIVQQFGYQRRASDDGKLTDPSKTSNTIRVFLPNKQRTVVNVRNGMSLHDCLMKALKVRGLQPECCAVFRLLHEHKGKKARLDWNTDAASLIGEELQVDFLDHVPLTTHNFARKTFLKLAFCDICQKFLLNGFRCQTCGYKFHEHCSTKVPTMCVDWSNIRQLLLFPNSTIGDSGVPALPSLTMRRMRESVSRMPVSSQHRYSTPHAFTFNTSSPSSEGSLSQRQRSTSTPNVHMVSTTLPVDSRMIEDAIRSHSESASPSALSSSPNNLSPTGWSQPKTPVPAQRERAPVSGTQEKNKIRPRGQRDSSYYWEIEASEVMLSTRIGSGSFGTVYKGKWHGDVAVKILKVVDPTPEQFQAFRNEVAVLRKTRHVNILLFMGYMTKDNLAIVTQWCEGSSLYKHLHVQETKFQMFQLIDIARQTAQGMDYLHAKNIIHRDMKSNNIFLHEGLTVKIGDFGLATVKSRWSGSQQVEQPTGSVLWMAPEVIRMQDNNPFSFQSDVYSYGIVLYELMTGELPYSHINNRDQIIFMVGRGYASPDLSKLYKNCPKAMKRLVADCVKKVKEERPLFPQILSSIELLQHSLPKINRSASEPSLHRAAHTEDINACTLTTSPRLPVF

For O=C(NO)c1sccc1Nc1nc(Nc2ccc(N3CCOCC3)cc2)ncc1Cl, the Activity (HCC827 [1]) was “Dose-Dependent Effect”, the pIC50 [2] was 6.67 and the IC50 at 72 h [3] was 2.45 µM. For the same molecule, the viability at 0.01 µM (HCC827 [4]) was 77.6%, the Activity (HCC827 [5]) was 6.32% and the inhibition [6] was 88.6%. For the same molecule, the pIC50 (HCC827 [7]) was 7.61, the Activity (HCC827 [8]) was 44.23% and the inhibition (Homo sapiens) was under 70%. For the same molecule, the Activity (HCC827 [9]) was 6.53%, the Activity (HCC827 [10]) was 9.64% and the Activity (HCC827 [11]) was 14.3%. The pIC50 [12] was 7.79, the inhibition (HCC827 [13]) was “Active” and the inhibition [14] was 61.9%. For the same molecule, the inhibition [15] was under 70%, the pIC50 [16] was 7.93 and the inhibition at 0.1 µM (HCC827 [17]) was 100%. The inhibition [18] was under 70%, the Activity (HCC827 [19]) was 46.13% and the Activity [20] was “Non-Toxic”. It also gave an inhibition [21] of under 70%, an inhibition [22] of under 70% and an Activity (HCC827 [23]) of 19.06%. For the same molecule, the Activity (HCC827 [24]) was 66.03%, the inhibition [25] was under 70% and the Activity (HCC827 [26]) was 7.64%. For the same molecule, the inhibition [27] was under 70%, the inhibition [28] was 99.5% and the Activity (HCC827 [29]) was “Dose-Dependent Effect”. The inhibition [30] was under 70%, the pIC50 (A549) was 6.15 and the Activity (HCC827 [31]) was 6.5%. For the same molecule, the Activity (HCC827 [32]) was 3.41%.
